Results from ChEMBL document CHEMBL1154247, “Biscarpamontamines A and B, an aspidosperma-iboga bisindole alkaloid and an aspidosperma-aspidosperma bisindole alkaloid, from Tabernaemontana sphaerocarpa” (J Nat Prod, 2009).

Columns and labels:
Assay type in all cases: functional, cell-based
[1] = system: HL-60; experiment: Cytotoxicity against human HL60 cells after 48 hrs by MTT assay; details: HL-60, 48 h
[2] = system: RPMI-8226; experiment: Cytotoxicity against human RPMI8226 cells after 48 hrs by MTT assay; details: RPMI-8226, 48 h
[3] = system: NCI-H226; experiment: Cytotoxicity against human NCI-H226 cells after 48 hrs by MTT assay; details: NCI-H226, 48 h
[4] = system: HCT-116; experiment: Cytotoxicity against human HCT116 cells after 48 hrs by MTT assay; details: HCT-116, 48 h
[5] = system: MCF7; experiment: Cytotoxicity against human MCF7 cells after 48 hrs by MTT assay; details: MCF7, 48 h

Compound	IC50 [1] [µM]	IC50 [2] [µM]	IC50 [3] [µM]	IC50 [4] [µM]	IC50 [5] [µM]
CC[C@H]1C[C@H]2C[C@@]3(C(=O)OC)c4c(c5cc(OC)ccc5n4CC4=C[C@@]5(CCO)CC(C(=O)OC)=C6Nc7ccccc7[C@@]67CCN(C4)[C@@H]57)CCN([C@@H]2O)[C@@H]13 [BISCARPAMONTAMINE A]	12.2	27.9	16.9	14	25.3
CC[C@]1(O)C[C@@H]2CN(CCc3c([nH]c4ccccc34)[C@@](C(=O)OC)(c3cc4c(cc3OC)N(C)[C@H]3[C@@](O)(C(=O)OC)[C@H](OC(C)=O)[C@]5(CC)C=CCN6CC[C@]43[C@@H]65)C2)C1 [VINBLASTINE]	0.0016				
CC[C@]1(O)C[C@H]2CN(CCc3c([nH]c4ccccc34)[C@@](C(=O)OC)(c3cc4c(cc3OC)N(C=O)[C@H]3[C@@](O)(C(=O)OC)[C@H](OC(C)=O)[C@]5(CC)C=CCN6CC[C@]43[C@@H]65)C2)C1 [VINCRISTINE]	0.00087				
